{"source": "patent US20110144010A1", "about": "“Spontaneously Dispersible Preconcentrates Including a Peptide Drug in a Solid or Semisolid Carrier” (Novo Nordisk A/S, priority 2007, published 2011)", "key": {"non diabetic dogs": {"system": "non diabetic dogs", "test": "Reduction in blood glucose after oral administration of enteric coated capsule to non diabetic dogs", "assay_type": "in vivo", "conditions": "overnight fasted dogs, propylene glycol, Capmul MCM, Pluronic F127, PEG 3350"}, "non-diabetic SPRD rats": {"system": "non-diabetic SPRD rats", "test": "Reduction of the blood glucose level after per-oral dosage (via gavage) to non-diabetic SPRD rats", "assay_type": "in vivo", "procedure": "The reduction in blood glucose in non-diabetic rats was examined after:\n3) Vehicle SEDDS containing 62.5% propylene glycol, 31.25% Capmul MCM C10 and 6.25% poloxamer 407 was dosed orally. SEDDS had been melted at 35° C. before dosing.\n(mean±SEM, n=5-6, dosage volume=4 ml/kg)."}}}
{"substance": "A14GluB25HisdesB30 human insulin", "values": [{"measurement": "Blood glucose levels", "setting": "non diabetic dogs; oral enteric coated capsule: 46 mg A14GluB25HisdesB30 human insulin, FIG. 2", "result": "Reduction in blood glucose levels"}, {"measurement": "Blood glucose level", "setting": "non-diabetic SPRD rats; 4800 nmol/kg in SEDDS (propylene glycol, Capmul MCM C10, poloxamer 407) or 4880 nmol/kg in H2O, FIG. 4", "result": "Reduction of the Blood Glucose Level"}]}
{"substance": "Asp^B28 human insulin [insulin aspart]", "values": [{"measurement": "Blood glucose levels", "setting": "non diabetic dogs; oral enteric coated capsule: 69 mg insulin aspart, FIG. 1", "result": "Reduction in blood glucose levels"}, {"measurement": "Blood glucose level", "setting": "non-diabetic SPRD rats; 9600 nmol/kg in SEDDS (propylene glycol, Capmul MCM C10, poloxamer 407) or 9800 nmol/kg in H2O, FIG. 3", "result": "Reduction of the Blood Glucose Level"}]}
